From the supplement of paper PMC10307832

Assays:
Assay in all cases: relative viability (nuclei count vs DMSO), 5 days (fraction); higher = more cells survive
[1] = test system: 201T
Outline: (§1)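 Medians of duplicate plates are given as relative viability. That measure is the nuclei count in treated wells divided by the count in vehicle wells. Counts were taken on 4× images of lung cancer cell lines in 1536-well plates, 5 days after pin-tool dosing the day after seeding with one drug alone or a fixed anchor-drug dose plus five library-drug doses (not always all listed) in √10 steps.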

[2] = test system: COR-L 105
Outline: as §1

[3] = test system: ChaGo-K-1
Outline: as §1

[4] = test system: EPLC-272H
Outline: as §1

[5] = test system: H3255
Outline: as §1

[6] = test system: HCC-78
Outline: as §1

[7] = test system: HCC-827
Outline: as §1

[8] = test system: LC-2-ad
Outline: as §1

[9] = test system: LCLC-97TM1
Outline: as §1

[10] = test system: NCI-H1666
Outline: as §1

[11] = test system: NCI-H1915
Outline: as §1

[12] = test system: NCI-H2087
Outline: as §1

[13] = test system: NCI-H2126
Outline: as §1

[14] = test system: NCI-H2347
Outline: as §1

[15] = test system: NCI-H23
Outline: as §1

[16] = test system: NCI-H2405
Outline: as §1

[17] = test system: NCI-H520
Outline: as §1

[18] = test system: NCI-H647
Outline: as §1

[19] = test system: NCI-H650
Outline: as §1

[20] = test system: NCI-H661
Outline: as §1

[21] = test system: PC-14
Outline: as §1

[22] = test system: RERF-LC-KJ
Outline: as §1

Cc1sc2c(c1C)C(c1ccc(Cl)cc1)=N[C@@H](CC(=O)OC(C)(C)C)c1nnc(C)n1-2 [JQ1] + Nc1ncn([C@H]2C[C@H](O)[C@@H](CO)O2)c(=O)n1 [Decitabine] (partner 2 µM)
relative viability ([1]; first compound 0.04 µM): 0.88 | relative viability ([1]; first compound 0.4 µM): 0.694 | relative viability ([1]; first compound 1.265 µM): 0.527 | relative viability ([1]; first compound 4 µM): 0.453 | relative viability ([2]; first compound 0.04 µM): 0.558 | relative viability ([2]; first compound 0.1265 µM): 0.457 | relative viability ([2]; first compound 0.4 µM): 0.399 | relative viability ([2]; first compound 1.265 µM): 0.33 | relative viability ([2]; first compound 4 µM): 0.386 | relative viability ([3]; first compound 0.04 µM): 0.552 | relative viability ([3]; first compound 0.1265 µM): 0.472 | relative viability ([3]; first compound 0.4 µM): 0.539 | relative viability ([3]; first compound 1.265 µM): 0.392 | relative viability ([3]; first compound 4 µM): 0.36 | relative viability ([4]; first compound 0.04 µM): 0.365 | relative viability ([4]; first compound 0.1265 µM): 0.352 | relative viability ([4]; first compound 0.4 µM): 0.323 | relative viability ([4]; first compound 1.265 µM): 0.246 | relative viability ([4]; first compound 4 µM): 0.253 | relative viability ([5]; first compound 0.04 µM): 0.562 | relative viability ([5]; first compound 0.4 µM): 0.539 | relative viability ([5]; first compound 1.265 µM): 0.305 | relative viability ([5]; first compound 4 µM): 0.249 | relative viability ([6]; first compound 0.04 µM): 0.604 | relative viability ([6]; first compound 0.1265 µM): 0.529 | relative viability ([6]; first compound 0.4 µM): 0.691 | relative viability ([6]; first compound 1.265 µM): 0.563 | relative viability ([6]; first compound 4 µM): 0.588 | relative viability ([7]; first compound 0.04 µM): 0.34 | relative viability ([7]; first compound 0.1265 µM): 0.302 | relative viability ([7]; first compound 1.265 µM): 0.333 | relative viability ([7]; first compound 4 µM): 0.314 | relative viability ([8]; first compound 0.04 µM): 0.754 | relative viability ([8]; first compound 0.1265 µM): 0.621 | relative viability ([8]; first compound 0.4 µM): 0.708 | relative viability ([8]; first compound 1.265 µM): 0.574 | relative viability ([8]; first compound 4 µM): 0.3 | relative viability ([9]; first compound 0.04 µM): 0.231 | relative viability ([9]; first compound 0.1265 µM): 0.223 | relative viability ([9]; first compound 0.4 µM): 0.188 | relative viability ([9]; first compound 1.265 µM): 0.156 | relative viability ([9]; first compound 4 µM): 0.125 | relative viability ([10]; first compound 0.04 µM): 0.763 | relative viability ([10]; first compound 0.1265 µM): 0.745 | relative viability ([10]; first compound 0.4 µM): 0.577 | relative viability ([10]; first compound 1.265 µM): 0.589 | relative viability ([10]; first compound 4 µM): 0.504 | relative viability ([11]; first compound 0.04 µM): 0.279 | relative viability ([11]; first compound 0.4 µM): 0.255 | relative viability ([11]; first compound 1.265 µM): 0.246 | relative viability ([11]; first compound 4 µM): 0.248 | relative viability ([12]; first compound 0.04 µM): 0.316 | relative viability ([12]; first compound 0.1265 µM): 0.251 | relative viability ([12]; first compound 0.4 µM): 0.262 | relative viability ([12]; first compound 1.265 µM): 0.151 | relative viability ([12]; first compound 4 µM): 0.18 | relative viability ([13]; first compound 0.04 µM): 0.591 | relative viability ([13]; first compound 0.1265 µM): 0.584 | relative viability ([13]; first compound 0.4 µM): 0.561 | relative viability ([13]; first compound 1.265 µM): 0.411 | relative viability ([13]; first compound 4 µM): 0.428 | relative viability ([14]; first compound 0.04 µM): 0.664 | relative viability ([14]; first compound 0.1265 µM): 0.6 | relative viability ([14]; first compound 0.4 µM): 0.58 | relative viability ([14]; first compound 1.265 µM): 0.506 | relative viability ([14]; first compound 4 µM): 0.437 | relative viability ([15]; first compound 0.04 µM): 0.323 | relative viability ([15]; first compound 0.1265 µM): 0.3 | relative viability ([15]; first compound 0.4 µM): 0.303 | relative viability ([15]; first compound 1.265 µM): 0.244 | relative viability ([15]; first compound 4 µM): 0.211 | relative viability ([16]; first compound 0.04 µM): 0.81 | relative viability ([16]; first compound 0.4 µM): 0.75 | relative viability ([16]; first compound 1.265 µM): 0.577 | relative viability ([16]; first compound 4 µM): 0.471 | relative viability ([17]; first compound 0.04 µM): 0.52 | relative viability ([17]; first compound 0.1265 µM): 0.561 | relative viability ([17]; first compound 0.4 µM): 0.443 | relative viability ([17]; first compound 1.265 µM): 0.349 | relative viability ([17]; first compound 4 µM): 0.355 | relative viability ([18]; first compound 0.04 µM): 0.309 | relative viability ([18]; first compound 0.1265 µM): 0.331 | relative viability ([18]; first compound 0.4 µM): 0.344 | relative viability ([18]; first compound 1.265 µM): 0.25 | relative viability ([18]; first compound 4 µM): 0.203 | relative viability ([19]; first compound 0.04 µM): 0.278 | relative viability ([19]; first compound 0.1265 µM): 0.305 | relative viability ([19]; first compound 0.4 µM): 0.316 | relative viability ([19]; first compound 1.265 µM): 0.251 | relative viability ([19]; first compound 4 µM): 0.249 | relative viability ([20]; first compound 0.04 µM): 0.505 | relative viability ([20]; first compound 0.1265 µM): 0.47 | relative viability ([20]; first compound 0.4 µM): 0.527 | relative viability ([20]; first compound 1.265 µM): 0.475 | relative viability ([20]; first compound 4 µM): 0.492 | relative viability ([21]; first compound 0.04 µM): 0.188 | relative viability ([21]; first compound 0.1265 µM): 0.19 | relative viability ([21]; first compound 0.4 µM): 0.185 | relative viability ([21]; first compound 1.265 µM): 0.0999 | relative viability ([21]; first compound 4 µM): 0.117 | relative viability ([22]; first compound 0.04 µM): 0.648 | relative viability ([22]; first compound 0.1265 µM): 0.532 | relative viability ([22]; first compound 0.4 µM): 0.56 | relative viability ([22]; first compound 1.265 µM): 0.333 | relative viability ([22]; first compound 4 µM): 0.235
